Test results from ChEMBL document CHEMBL4422653, “Discovery of a potent tyrosine kinase AXL inhibitor bearing the 3-((2,3,4,5-tetrahydro-1H-benzo[d]azepin-7-yl)amino)pyrazine core” (Bioorg Med Chem Lett, 2019).

Tests used:
Format in all cases: ADME, organism-based
Settings in all cases: in vivo
[1] = Tmax in Sprague-Dawley rat at 3 mg/kg, po
[2] = AUC (0 to infinity) in Sprague-Dawley rat at 1 mg/kg, iv; design: dose 1 mg/kg, route intravenous, time infinity
[3] = Clearance in Sprague-Dawley rat at 1 mg/kg, iv
[4] = Half life in Sprague-Dawley rat at 1 mg/kg, iv
[5] = Cmax in Sprague-Dawley rat at 3 mg/kg, po; design: dose 3 mg/kg, route oral
[6] = AUC (0 to infinity) in Sprague-Dawley rat at 3 mg/kg, po; design: dose 3 mg/kg, time infinity, route oral
[7] = Oral bioavailability in Sprague-Dawley rat at 3 mg/kg

Tmax [1]: 4 h
AUC(0-inf) [2]: 179 ng·h/mL
clearance [3]: 93.2 mL/min/kg
half-life [4]: 2.12 h
Cmax [5]: 23.8 ng/mL
AUC(0-inf) [6]: 199 ng·h/mL
bioavailability [7]: 24.8%
SMILES: CCc1nc(C(N)=O)c(Nc2ccc3c(c2)CCN(C2CCCC2)CC3)nc1NC1CCOCC1
